Test results reported in patent US20240366624A1, “METHODS AND COMPOSITIONS FOR TREATING THROMBOTIC DISEASE” (Washington University, priority 2023, published 2024).
“Also recorded” adds a separate entry of the source. Where a SMILES comes first, the peptide text is derived from it. Bridges are numbered along the chain shown (N, C = ends). [ ]: non-standard residue; d: D form. hArg = N=C(N)NCCCC[C@H](N)C(=O)O; Mpa = O=C(O)CCS

Key:
WT mice = assay: FeCl3-induced carotid arterial thrombosis; type: in vivo, mouse; settings: 5 μg/g BW, vs vehicle control
Procedure: FIG. […]) is an exemplary embodiment of B12-5 having an antithrombotic effect without prolonging tail bleeding times in mice in accordance with the present disclosure. FIG. […]): Ex vivo effects of B12-5. Wild type (WT; […] One hour later, blood was drawn, followed by isolating platelets. P-selectin exposure (FIG. 19A) and αIIbβ3 integrin activation (FIG. 19B) were assessed in flow cytometry. FIG. 19C: Platelet aggregation was measured after treatment with 0.025 U/mL thrombin. The data represent the mean±SD (n=4). FIG. 19D: The plasma levels of B12-5 were analyzed by liquid chromatography-tandem mass spectrometry (LC-MS/MS) after intravenous injection of the compound (5 μg/g BW) into WT mice and quantified by comparison with a standard curve of B12-5 (mean±SD, n=3). FIG. 19E and FIG. 19F: After laser-induced cremaster arteriolar injury, intravital microscopy was conducted with WT mice pretreated with intravenous injection of saline, eptifibatide (5 μg/g BW), vehicle, or B12-5 (5 μg/g BW). The median integrated fluorescence intensities of anti-CD42c (F platelet) and anti-fibrin (F fibrin) antibodies (n=37-42 arterioles in 6 mice per group). Quantification of the antibody signal at a different time point after laser injury. FIG. 19G: Comparison of B12-5 (5 μg/g BW) with eptifibatide (5 μg/g BW) and their respective controls in inhibiting FeCl3-induced carotid artery thrombosis in WT mice. FIG. 19H and FIG. 19I: WT mice were treated with intravenous injection of vehicle control, eptifibatide (5 μg/g BW), or B12-5 (5 μg/g BW). Thirty minutes later, tail bleeding times and Hb contents were measured after amputation of the tail tip. […] Twenty-three hours later, neurological deficits were assessed by the Bederson score and grip test, and infarct volume was measured as described in Methods. […] Twenty-three hours later, the neurological deficit and infarct volume were measured as described above. […] P values determined by unpaired Student t test (FIG. […]), FIG. 19K, and FIG. 19O) or Mann-Whitney U test (FIG. 19(E-1), FIG. 19L, FIG. 19M, FIG. 19P, and FIG. 19Q). […]

WT (C57BL/6) mice = assay: Intravital microscopy, laser-induced cremaster arteriolar injury, WT mice; type: in vivo, mouse; settings: iv 5 μg/g BW
Procedure: Intravital microscopy was performed in a mouse model of laser-induced cremaster arteriolar injury as previously described. WT (C57BL/6), littermate WT control, and CKO and KO male mice (8-10 weeks old) were anesthetized with intraperitoneal injection of ketamine and xylazine. The cremaster muscle was exteriorized and superfused with 37° C. bicarbonate-buffered saline throughout the experiment. Arteriolar wall injury was induced by laser ablation (Photonics Instruments) as previously described. Multiple thrombi were generated in at least 3 to 4 different arterioles of 1 mouse, with new thrombi formed upstream of earlier thrombi to minimize any contribution from thrombi generated earlier in the mouse. Platelets and fibrin were visualized by infusion of DyLight 649-conjugated anti-CD42c (0.2 μg/g body weight [BW]) and Alexa Fluor 488-conjugated anti-fibrin (0.2 μg/g BW) antibodies, respectively. To detect extracellular Ero1α, Alexa Fluor 488-conjugated rabbit IgG or nonblocking anti-ERO1α antibodies (0.3 μg/g BW) were injected into WT (C57BL/6), WT control, Ero1α KO, and Ero1α CKO mice. In some experiments, wtERO1α or activity-null ERO1α-Cys94Ser (mutant ERO1α [mERO1α]; 4 μg/g BW) was infused into Ero1α KO mice before imaging. To test the effect of ERO1α inhibitors or blocking anti-ERO1α antibodies, WT (C57BL/6) mice were treated with intravenous injection of vehicle control, eptifibatide (5 μg/g BW), B12-5 (5 μg/g BW), isotype control IgGs, anti-ERO1α (15E9, 1-3 μg/g BW), or anti-PDI (BD34, 3 μg/g BW) 3 minutes before treatment with the anti-CD42c and anti-fibrin antibodies. The same dose of eptifibatide was injected every 20 minutes to maintain the inhibitory effect. […] Fluorescence and bright-field images were captured in 6 to 10 different cremaster arterioles with a diameter of 30 to 45 μm in each mouse and recorded using either an Olympus BX61W microscope with a 60×1.0 salt water immersion objective or a Zeiss Axio Examiner Z1 microscope system with a Yokogawa confocal spinning disk (CSU-W1) equipped with 4 stack laser system (405-, 488-, 561-, and 637-nm wavelengths). Images were collected with a high-speed, high-resolution camera (2304×2304 pixel format; ORCA-Fusion BT sCMOS, Hamamatsu). Time 0 was set to when image capture began on each vessel. The data were analyzed using Slidebook (version 6.0; Intelligent Imaging Innovations). Due to the significant variation between vessels in the same mouse, the result from each vessel was counted as an individual value. Representative images were chosen that most closely resemble the mean values in the quantifications.

In the case of `N=C(N)NCCCC[C@@H]1NC(=O)CCSSC[C@@H](C(N)=O)NC(=O)[C@@H]2CCCN2C(=O)[C@H](Cc2c[nH]c3ccccc23)NC(=O)[C@H](CC(=O)O)NC(=O)CNC1=O` [eptifibatide, reference compound] ([Mpa][hArg]GDWPC-NH2; disulfide 1-7), the time to occlusion (WT mice) is reported as “significantly prolonged”, the fibrin generation (WT (C57BL/6) mice) is reported as “without reducing; also recorded: without affecting” and the platelet thrombus formation (WT (C57BL/6) mice) is reported as “inhibit”.
